Molecules are shown by their SMILES.

One test addresses human cathepsin K (UniProt P43236). Briefly: Cathepsin K Assay (hrbCat K). Format: biochemical. As to conditions: Z-Leu-Arg-AMC substrate, pH 5.5, 15 min preincubation; read-out: hrbCat K (IP (nM)). The essentials:
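Human cathepsin K (0.4 nM) was preincubated 15 min at room temperature with compound in 50 mM MES pH 5.5, 2.5 mM EDTA, 2.5 mM DTT and 10% DMSO. Inhibition was fitted to a dose-response model.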

A further test concerns the target T1, human cathepsin F (Homo sapiens, UniProt Q9UBX1).
T1 sequence (Q9UBX1 271-484): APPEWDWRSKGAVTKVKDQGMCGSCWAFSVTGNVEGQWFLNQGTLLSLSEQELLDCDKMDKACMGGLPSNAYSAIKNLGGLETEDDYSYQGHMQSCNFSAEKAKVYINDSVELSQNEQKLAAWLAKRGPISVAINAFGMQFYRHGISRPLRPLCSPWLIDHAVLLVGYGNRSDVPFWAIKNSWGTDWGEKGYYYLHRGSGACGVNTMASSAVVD
Briefly: Cathepsin F assay (hCat F). It counts as biochemical. To be noted: Z-Phe-Arg-AMC substrate, pH 5.5, 15 min preincubation; read-out: hCat F (IP (nM)). The method in brief:
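Enzyme (10 nM) was preincubated 15 min at room temperature with compounds (1/3 DMSO dilution series, 500–0.025 μM) in 50 mM MES pH 5.5, 2.5 mM EDTA, 2.5 mM DTT, 10% DMSO. Z-Phe-Arg-AMC (8 μM) was added and AMC fluorescence (Ex 360/Em 460 nm) followed for 20 min. % inhibition was fitted to dose-response curves.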

For `N#Cc1ccccc1-c1nc([C@@H]2CCCC[C@H]2C(=O)NC2(C#N)CC2)c(-c2ccc(N3CCS(=O)(=O)CC3)cc2)s1` [Example 79, (1R,2R)-N-(1-cyanocyclopropyl)-2-(2-(2-cyanophenyl)-5-(4-(1,1-dioxidothiomorpho-lino)phenyl)thiazol-4-yl)cyclohexane-carboxamide], the IC50 at human cathepsin K was found to be 9.3 nM; on human cathepsin F it was 5750 nM.
The matching figures for `CS(=O)(=O)c1ccc(-c2oc(-c3ccccc3)nc2C2CCC(F)(F)CC2C(=O)NCC#N)cc1` (racemic) [Example 162, (1R,2R and 1S,2S)-N-(cyanomethyl)-5,5-difluoro-2-(5-(4-(methylsulfonyl)phenyl)-2-phenyloxazol-4-yl)cyclohexane-carboxamide]: 2.7 nM and 49 nM.
The matching figures for `N#CC1(NC(=O)[C@@H]2CC(F)(F)CC[C@H]2c2nc(CCC(F)(F)F)sc2-c2ccc(N3CCS(=O)(=O)CC3)cc2)CC1` [Example 23, (1R,2R)-N-(1-cyanocyclopropyl)-2-(5-(4-(1,1-dioxidothiomorpho-lino)phenyl)-2-(3,3,3-trifluoropropyl)thia-zol-4-yl)-5,5-difluorocyclohexane-carboxamide]: 1.1 nM and 223 nM.
The matching figures for `Cc1ccc(-c2nc([C@@H]3CC[C@H](F)C[C@H]3C(=O)N[C@H](C#N)C(C)C)c(-c3ccc(N4CCS(=O)(=O)CC4)cc3)s2)nn1` [Example 217, (1R,2R,5S)-N-((S)-1-cyano-2-methylpropyl)-2-(5-(4-(1,1-dioxidothiomorpho-lino)phenyl)-2-(6-methylpyridazin-3-yl)thiazol-4-yl)-5-fluorocyclohexane-carboxamide]: 1.5 nM and 2930 nM.
On to `N#CC1(NC(=O)[C@@H]2CCCC[C@H]2c2nc(C3CCS(=O)(=O)CC3)sc2-c2ccc(N3CCS(=O)(=O)CC3)cc2)CC1` [Example 158, (1R,2R)-N-(1-cyanocyclopropyl)-2-(2-(1,1-dioxidotetrahydro-2H-thiopyran-4-yl)-5-(4-(1,1-dioxidothiomorpho-lino)phenyl)thiazol-4-yl)cyclohexane-carboxamide], for which the IC50 on human cathepsin K was 4.6 nM; at human cathepsin F it was no less than 10000 nM.
The like results for `C[C@@H](C#N)NC(=O)[C@@H]1C[C@@H](F)CC[C@H]1c1nc(CF)sc1-c1ccc(N2CCS(=O)(=O)CC2)cc1` [Example 237, (1R,2R,5S)-N-((S)-1-cyanoethyl)-2-(5-(4-(1,1-dioxidothiomorpho-lino)phenyl)-2-(fluoromethyl)thia-zol-4-yl)-5-fluorocyclohexane-carboxamide] were, in that order, 4.1 nM and 6830 nM.
The like results for `N#CC1(NC(=O)[C@@H]2CCCC[C@H]2c2nc(-c3ccnc(C(F)(F)F)c3)sc2-c2ccc(N3CCS(=O)(=O)CC3)cc2)CC1` [Example 96, (1R,2R)-N-(1-cyanocyclopropyl)-2-(5-(4-(1,1-dioxidothiomorpho-lino)phenyl)-2-(2-(trifluoromethyl)pyridin-4-yl)thiazol-4-yl)cyclohexane-carboxamide] were, in that order, 2.1 nM and 1920 nM.
The matching figures for `N#CC1(NC(=O)[C@@H]2CCC(Cl)(Cl)C[C@H]2c2nc(-c3ccc(F)cn3)sc2-c2ccc(N3CCS(=O)(=O)CC3)cc2)CC1` [Example 204, (1R,2R)-4,4-dichloro-N-(1-cyanocyclopropyl)-2-(5-(4-(1,1-dioxidothiomorpho-lino)phenyl)-2-(5-fluoropyridin-2-yl)thiazol-4-yl)cyclohexane-carboxamide]: 88.2 nM and 3330 nM.
As for `N#CC1(NC(=O)[C@@H]2CC(F)(F)CC[C@H]2c2nc(-c3ccc(F)cc3)sc2-c2ccc(C(=O)N3CCC(O)CC3)cc2)CC1` [Example 31, (1R,2R)-N-(1-cyanocyclopropyl)-5,5-difluoro-2-(2-(4-fluorophenyl)-5-(4-(4-hydroxypiperidine-1-carbonyl)phenyl)thi-azol-4-yl)cyclohexane-carboxamide], the values for the IC50 at human cathepsin K and at human cathepsin F were 3.4 nM and 73 nM, respectively.
The like results for `N#Cc1cc(Cl)ccc1-c1nc([C@@H]2CCCC[C@H]2C(=O)NC2(C#N)CC2)c(-c2ccc(N3CCS(=O)(=O)CC3)cc2)s1` [Example 87, (1R,2R)-2-(2-(4-chloro-2-cyanophenyl)-5-(4-(1,1-dioxidothiomorpho-lino)phenyl)thiazol-4-yl)-N-(1-cyanocyclopropyl) cyclohexanecarbox-amide] were, in that order, 6.7 nM and 7780 nM.
The like results for `CC(C)(C)c1nc([C@@H]2CC[C@H](F)C[C@H]2C(=O)NC2(C#N)CC2)c(-c2ccc(N3CCS(=O)(=O)CC3)cc2)s1` [Example 25, (1R,2R,5S)-2-(2-(tert-butyl)-5-(4-(1,1-dioxidothiomorpho-lino)phenyl)thiazol-4-yl)-N-(1-cyanocyclopropyl)-5-fluorocyclohexane-carboxamide] were, in that order, 3.3 nM and 9260 nM.
The matching figures for `N#CC1(NC(=O)[C@@H]2CCCC[C@H]2c2nc(N)sc2-c2ccc(N3CCS(=O)(=O)CC3)cc2)CC1` [Example 190, (1R,2R)-2-(2-amino-5-(4-(1,1-dioxidothiomorpho-lino)phenyl)thiazol-4-yl)-N-(1-cyanocyclopropyl) cyclohexanecarbox-amide]: 13.2 nM and 7410 nM.
Turning to `N#CC1(NC(=O)[C@@H]2CCCC[C@H]2c2nc(-c3ncc(F)cn3)sc2-c2ccc(N3CCS(=O)(=O)CC3)cc2)CC1` [Example 80, (1R,2R)-N-(1-cyanocyclopropyl)-2-(5-(4-(1,1-dioxidothiomorpho-lino)phenyl)-2-(5-fluoropyrimidin-2-yl)thiazol-4-yl)cyclohexane-carboxamide], the results for the IC50 at human cathepsin K and on human cathepsin F were 31.6 nM and no less than 10000 nM, respectively.
With `N#CC1(NC(=O)[C@@H]2CCCC[C@H]2c2nc(-c3ccc(F)cc3)sc2-c2ccc(N3CCS(=O)(=O)CC3)cc2)CC1` [Example 27, (1R,2R)-N-(1-cyanocyclopropyl)-2-(5-(4-(1,1-dioxidothiomorpho-lino)phenyl)-2-(4-fluorophenyl)thiazol-4-yl)cyclohexane-carboxamide], the IC50 at human cathepsin K amounted to 0.6 nM; on human cathepsin F it was 1000 nM.
The like results for `CC(C)[C@@H](C#N)NC(=O)[C@@H]1C[C@@H](F)CC[C@H]1c1nc(C(C)(C)C)oc1-c1ccc(N2CCS(=N)(=O)CC2)cc1` [Example 172, (1R,2R,5S)-2-(2-(tert-butyl)-5-(4-(1-imino-1-oxidothiomorpholino)phenyl)oxazol-4-yl)-N-((S)-1-cyano-2-methylpropyl)-5-fluorocyclohexane-carboxamide] were, in that order, 34.4 nM and no less than 10000 nM.
The matching figures for `CC(C)S(=O)(=O)c1ccc(-c2sc(-c3cncc(F)c3)nc2[C@@H]2CCCC[C@H]2C(=O)NC2(C#N)CC2)cc1` [Example 199, (1R,2R)-N-(1-cyanocyclopropyl)-2-(2-(5-fluoropyridin-3-yl)-5-(4-(isopropylsulfonyl)phenyl)thiazol-4-yl)cyclohexane-carboxamide]: 25.8 nM and 846 nM.
The like results for `N#CC1(NC(=O)[C@@H]2CCCC[C@H]2c2nc(-c3ccc(F)cn3)sc2-c2ccc(N3CCS(=O)(=O)CC3)cc2)COC1` [Example 211, (1R,2R)-N-(3-cyanooxetan-3-yl)-2-(5-(4-(1,1-dioxidothiomorpho-lino)phenyl)-2-(5-fluoropyridin-2-yl)thiazol-4-yl)cyclohexane-carboxamide] were, in that order, 1.7 nM and 289 nM.
With `N#CC1(NC(=O)[C@@H]2CCCC[C@H]2c2nc(C3(c4ccccc4)CC3)sc2-c2ccc(N3CCS(=O)(=O)CC3)cc2)CC1` [Example 175, (1R,2R)-N-(1-cyanocyclopropyl)-2-(5-(4-(1,1-dioxidothiomorpho-lino)phenyl)-2-(1-phenylcyclopropyl)thiazol-4-yl)cyclohexane-carboxamide], the results for the IC50 on human cathepsin K and at human cathepsin F were 2.1 nM and 1000 nM, respectively.
The matching figures for `CN(CC(F)(F)F)c1nc([C@@H]2CCCC[C@H]2C(=O)NC2(C#N)CC2)c(-c2ccc(N3CCS(=O)(=O)CC3)cc2)s1` [Example 152, (1R,2R)-N-(1-cyanocyclopropyl)-2-(5-(4-(1,1-dioxidothiomorpho-lino)phenyl)-2-(methyl(2,2,2-trifluoroethyl)amino)thiazol-4-yl)cyclohexane-carboxamide]: 7 nM and no less than 10000 nM.
`N#CC1(NC(=O)[C@@H]2CCCC[C@H]2c2nc(-c3ccc(F)c(F)c3)sc2-c2ccc(N3CCS(=O)(=O)CC3)cc2)CC1` [Example 58, (1R,2R)-N-(1-cyanocyclopropyl)-2-(2-(3,4-difluorophenyl)-5-(4-(1,1-dioxidothiomorpho-lino)phenyl)thiazol-4-yl)cyclohexane-carboxamide]: the IC50 was 1.7 nM on human cathepsin K and 815 nM at human cathepsin F.
The like results for `CC(C)[C@@H](C#N)NC(=O)[C@@H]1C[C@@H](F)CC[C@H]1c1nc(-c2cncc(F)c2)sc1-c1ccc(N2CCS(=O)(=O)CC2)cc1` [Example 209, (1R,2R,5S)-N-((S)-1-cyano-2-methylpropyl)-2-(5-(4-(1,1-dioxidothiomorpho-lino)phenyl)-2-(5-fluoropyridin-3-yl)thiazol-4-yl)-5-fluorocyclohexane-carboxamide] were, in that order, 1.5 nM and 1000 nM.
